Results: the supplement of paper PMC11451515

System: NOMO1
Experiment: cell viability relative to DMSO control; higher = less cytotoxic
Conditions: 48 h
Outline: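 NOMO1, SEM and P12-Ichikawa leukemia cells spent at least four passages adapting to each medium before use. They were seeded at 500 cells/well (NOMO1, SEM) or 1000 cells/well (P12-Ichikawa) in 5 μl in 1536-well plates and pin-dosed with library compounds in DMSO at 11 threefold steps from 47 μM down to 0.79 nM. After 48 h at 37°C, CellTiter-Glo One luminescence was read. Viability is reported as a percentage of the DMSO wells on each plate, with cell-free wells as background.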

[1] = HPLM + 10% dialyzed FBS, 0.000781 µM
[2] = HPLM + 10% dialyzed FBS, 0.00234 µM
[3] = HPLM + 10% dialyzed FBS, 0.00702 µM
[4] = HPLM + 10% dialyzed FBS, 0.0211 µM
[5] = HPLM + 10% dialyzed FBS, 0.0632 µM
[6] = HPLM + 10% dialyzed FBS, 0.19 µM
[7] = HPLM + 10% dialyzed FBS, 0.569 µM
[8] = HPLM + 10% dialyzed FBS, 1.71 µM
[9] = HPLM + 10% dialyzed FBS, 5.12 µM
[10] = HPLM + 10% dialyzed FBS, 15.4 µM
[11] = HPLM + 10% dialyzed FBS, 46.1 µM
[12] = RPMI 5 mM glucose + 10% FBS, 0.000781 µM
[13] = RPMI 5 mM glucose + 10% FBS, 0.00234 µM
[14] = RPMI 5 mM glucose + 10% FBS, 0.00702 µM
[15] = RPMI 5 mM glucose + 10% FBS, 0.0211 µM
[16] = RPMI 5 mM glucose + 10% FBS, 0.0632 µM
[17] = RPMI 5 mM glucose + 10% FBS, 0.19 µM
[18] = RPMI 5 mM glucose + 10% FBS, 0.569 µM
[19] = RPMI 5 mM glucose + 10% FBS, 1.71 µM
[20] = RPMI 5 mM glucose + 10% FBS, 5.12 µM
[21] = RPMI 5 mM glucose + 10% FBS, 15.4 µM
[22] = RPMI 5 mM glucose + 10% FBS, 46.1 µM
[23] = RPMI 5 mM glucose + 10% dialyzed FBS, 0.000781 µM
[24] = RPMI 5 mM glucose + 10% dialyzed FBS, 0.00234 µM
[25] = RPMI 5 mM glucose + 10% dialyzed FBS, 0.00702 µM
[26] = RPMI 5 mM glucose + 10% dialyzed FBS, 0.0211 µM
[27] = RPMI 5 mM glucose + 10% dialyzed FBS, 0.0632 µM
[28] = RPMI 5 mM glucose + 10% dialyzed FBS, 0.19 µM
[29] = RPMI 5 mM glucose + 10% dialyzed FBS, 0.569 µM
[30] = RPMI 5 mM glucose + 10% dialyzed FBS, 1.71 µM
[31] = RPMI 5 mM glucose + 10% dialyzed FBS, 5.12 µM
[32] = RPMI 5 mM glucose + 10% dialyzed FBS, 15.4 µM
[33] = RPMI 5 mM glucose + 10% dialyzed FBS, 46.1 µM

| SMILES | cell viability [1] [%] | cell viability [2] [%] | cell viability [3] [%] | cell viability [4] [%] | cell viability [5] [%] | cell viability [6] [%] | cell viability [7] [%] | cell viability [8] [%] | cell viability [9] [%] | cell viability [10] [%] | cell viability [11] [%] | cell viability [12] [%] | cell viability [13] [%] | cell viability [14] [%] | cell viability [15] [%] | cell viability [16] [%] | cell viability [17] [%] | cell viability [18] [%] | cell viability [19] [%] | cell viability [20] [%] | cell viability [21] [%] | cell viability [22] [%] | cell viability [23] [%] | cell viability [24] [%] | cell viability [25] [%] | cell viability [26] [%] | cell viability [27] [%] | cell viability [28] [%] | cell viability [29] [%] | cell viability [30] [%] | cell viability [31] [%] | cell viability [32] [%] | cell viability [33] [%] |
| --- | --- | --- | --- | --- | --- | --- | --- | --- | --- | --- | --- | --- | --- | --- | --- | --- | --- | --- | --- | --- | --- | --- | --- | --- | --- | --- | --- | --- | --- | --- | --- | --- | --- |
| CN(C)c1nc(N(C)C)nc(N(C)C)n1 | 101 | 113 | 100 | 105 | 96.3 | 92 | 90.5 | 97.1 | 98.7 | 82.3 | 89.9 | 96.2 | 108 | 102 | 97.4 | 99 | 95.3 | 94.6 | 92.2 | 95.9 | 95.3 | 91 | 94 | 103 | 96 | 99 | 98.4 | 103 | 101 | 89.4 | 83.9 | 90.8 | 85.6 |
| O=C(Oc1ccc([N+](=O)[O-])cc1)N1CCN(Cc2cccc(Oc3ccccc3)c2)CC1 | 115 | 110 | 112 | 113 | 113 | 126 | 104 | 126 | 120 | 102 | 122 | 95.6 | 101 | 112 | 113 | 113 | 123 | 110 | 105 | 110 | 109 | 112 | 93.9 | 98.5 | 103 | 99.8 | 99.9 | 98.3 | 103 | 114 | 104 | 112 | 105 |
| COC1=CC=C(C=C1)C/2=C/OC3=CC(=CC=C3C2=O)O | 108 | 125 | 114 | 119 | 116 | 119 | 119 | 109 | 83.1 | 67.9 | 43.1 | 123 | 111 | 121 | 115 | 132 | 114 | 106 | 118 | 102 | 101 | 71.1 | 122 | 120 | 113 | 106 | 133 | 121 | 101 | 105 | 111 | 104 | 98.4 |
| C=C1C[C@@]2(O)O[C@@]3(C[C@H]2C(C)C)[C@@H](C)CC[C@@H]13 | 120 | 94.8 | 122 | 133 | 121 | 134 | 114 | 117 | 134 | 132 | 111 | 108 | 114 | 122 | 126 | 136 | 119 | 121 | 122 | 130 | 119 | 135 | 114 | 125 | 118 | 109 | 117 | 122 | 98.1 | 102 | 121 | 102 | 124 |
| CC1=C(/C=C/C(C)=C/C=C/C(C)=C/C(=O)Nc2ccc(O)cc2)C(C)(C)CCC1 | 63.6 | 82.3 | 97.9 | 102 | 87.5 | 81.5 | 94.6 | 80.6 | 53.6 | 25.9 | 4.95 | 72.4 | 85.1 | 74.5 | 96.5 | 91 | 79.9 | 95 | 78.8 | 63 | 34 | 4.45 | 78 | 76.4 | 77.8 | 92.9 | 90.9 | 89.7 | 86 | 85.5 | 55.8 | 23.6 | 3.24 |
| Cl.Cl.Fc1ccc(C(OCCN2CCN(CCCc3ccccc3)CC2)c2ccc(F)cc2)cc1 | 120 | 113 | 127 | 125 | 139 | 123 | 127 | 130 | 104 | 93.1 | 11.3 | 119 | 116 | 116 | 119 | 111 | 109 | 117 | 113 | 108 | 116 | 18.5 | 113 | 129 | 113 | 126 | 123 | 135 | 112 | 118 | 122 | 96.4 | 12.9 |
| c1ccc(-c2nn3c(c2-c2ccnc4cc(OCCN5CCOCC5)ccc24)CCC3)nc1 | 122 | 126 | 113 | 129 | 133 | 119 | 124 | 108 | 117 | 96.1 | 70.6 | 86 | 99.6 | 107 | 105 | 111 | 108 | 108 | 99.2 | 97.8 | 91.3 | 91.7 | 66.2 | 116 | 102 | 108 | 106 | 108 | 109 | 101 | 98.5 | 92.8 | 83.4 |
| c1cc(-c2sc(-c3ccncc3)c(-c3ccncc3)c2-c2ccncc2)ccn1 | 88.1 | 111 | 117 | 111 | 108 | 129 | 140 | 114 | 124 | 116 | 78.3 | 118 | 128 | 106 | 105 | 113 | 118 | 127 | 103 | 98.2 | 109 | 93.4 | 94.1 | 107 | 106 | 104 | 117 | 106 | 114 | 105 | 101 | 90.9 | 92.3 |
| C[C@H]1CCC/C=C/C2C[C@H](O)C[C@H]2[C@H](O)/C=C/C(=O)O1 (stereo not given in full) | 4.93 | 15.8 | 26.7 | 7.07 | 5.05 | 5.57 | 5.16 | 4.43 | 3.51 | 3.39 | 2.94 | 5.4 | 7 | 5.78 | 5.27 | 5.07 | 4.51 | 4.27 | 3.98 | 1.66 | 1.88 | 3.46 | 79.5 | 6.02 | 10 | 5.74 | 4.22 | 4.83 | 4.29 | 3.43 | 2.6 | 2.61 | 2.61 |
| C[C@H]1[C@@H](CC(C[C@H]2O[C@@H]3O[C@]4(C)CC[C@H]5[C@H](C)CC[C@@H]([C@H]2C)[C@@]35OO4)C[S+](=O)([O-])c2ccc(COC(=O)N(C)C)cc2)O[C@@H]2O[C@]3(C)CC[C@H]4[C@H](C)CC[C@@H]1[C@@]24OO3 | 122 | 123 | 116 | 120 | 127 | 110 | 44.8 | 22.5 | 22.3 | 17.9 | 10.8 | 114 | 119 | 113 | 98.9 | 103 | 101 | 82.5 | 28 | 21.8 | 17 | 15.1 | 109 | 118 | 100 | 110 | 108 | 91.9 | 32.3 | 22.5 | 24 | 18.8 | 14.8 |
| COC1=CC=C2C(=CC=NC2=C1)OC3=CC=C(NC(=O)\C4=C(C)\N(CC(C)(C)O)N(C4=O)C5=CC=CC=C5)C=C3F | 124 | 116 | 104 | 115 | 132 | 120 | 108 | 107 | 125 | 110 | 105 |  |  |  |  |  |  |  |  |  |  |  |  |  |  |  |  |  |  |  |  |  |  |
| CCC(CC)[C@H](NC(C)=O)[C@@H]1[C@H](O)[C@@H](C(=O)O)C[C@H]1NC(=N)N | 67.7 | 72 | 78 | 85 | 80.9 | 96.4 | 90.3 | 90.8 | 87.7 | 82.8 | 94.9 | 81.8 | 85 | 88.7 | 85.8 | 89 | 84.3 | 90 | 87.1 | 84.1 | 79.5 | 81.1 | 80.4 | 79.7 | 82.6 | 80.4 | 93 | 83 | 90.2 | 81.7 | 78.2 | 78.3 | 83.1 |
| CC(=O)SCC(Cc1ccccc1)C(=O)NCC(=O)OCc1ccccc1 (stereo not given) | 88.4 | 85.1 | 102 | 104 | 102 | 106 | 107 | 88.9 | 63.9 | 14.7 | 9.71 | 81.7 | 82.6 | 80.3 | 93.4 | 84.3 | 89.4 | 95.2 | 95 | 72.1 | 15.1 | 10.7 | 78.2 | 74.3 | 86.7 | 85.6 | 96.9 | 98.4 | 95.6 | 76.8 | 65.6 | 13.4 | 13.2 |
| CCOP(=O)(OCC)C(C)NC(=O)N(CCCl)N=O (stereo not given) |  |  |  |  |  |  |  |  |  |  |  | 120 | 115 | 124 | 134 | 121 | 131 | 126 | 139 | 141 | 163 | 154 | 112 | 116 | 138 | 141 | 137 | 137 | 134 | 136 | 133 | 140 | 128 |
| CCOC(=O)c1ccc(C#Cc2ccc3c(c2)C(C)(C)CCS3)nc1 | 101 | 109 | 122 | 108 | 86.1 | 104 | 103 | 101 | 97.8 | 89.1 | 79.6 | 94 | 108 | 91.6 | 100 | 93.3 | 94 | 107 | 96.8 | 99.4 | 98.6 | 94.2 | 90 | 108 | 104 | 109 | 97.9 | 90.2 | 90.7 | 94.9 | 94.6 | 99.6 | 88.7 |
| COc1cc2ncnc(Nc3ccc(F)c(Cl)c3)c2cc1OCCCN1CCOCC1 | 127 | 115 | 112 | 95.3 | 109 | 117 | 108 | 96.8 | 93.7 | 64 | 29.2 | 111 | 114 | 109 | 106 | 102 | 116 | 104 | 100 | 101 | 87.7 | 86.2 | 121 | 112 | 122 | 112 | 115 | 113 | 114 | 109 | 93.4 | 97.5 | 75.1 |
